1 molecule from ChEMBL document CHEMBL2311387, “Dose-dependent interaction of trans-resveratrol with biomembranes: effects on antioxidant property” (J Med Chem, 2013) can be followed below.

In one data set the test system is MCF7. Nature of the data set: Cytotoxicity against human MCF7 cells at 100 uM after 24 hrs by MTS assay. The format is cell-based. To be noted: mcf7, 24 h. On the technique in general: Tetrazolium assays rely on reduction of a dye to a coloured formazan, in cell work by metabolically active cells.
Data set [1] can be described thus: Binding affinity to planer lipid bilayer assessed as reduction in diameter of semicircle pattern at up to 60 uM by admittance spectroscopic analysis. The format is physicochemical.
Data set [2] in a line: Induction of destruction morphology in human erythrocytes up to 100 uM after 1 hr by cold field emission scanning electron microscopic analysis. To be noted: erythrocyte. It counts as cell-based.
A short description of data set [3]: Antioxidant activity in planer lipid bilayer membrane assessed as reduction in 50 uM DPPH-induced charge transfer resistance at 100 uM by admittance spectroscopic analysis. The format is functional, cell membranes. Details: scale not given: the % may be the effect or the level left. (DPPH is a stable violet radical that fades when it is reduced.)
Data set [4] can be described thus: Antioxidant activity in planer lipid bilayer membrane assessed as reduction in 100 uM DPPH-induced charge transfer resistance at 100 uM by admittance spectroscopic analysis. The format is functional, cell membranes. Details: scale not given: the % may be the effect or the level left.
Data set [5] can be described thus: Binding affinity to curcumin encapsulated liposomes assessed as curcumin release from unilamellar vesicles at 100 uM after 20 mins NMR spectroscopic analysis.
Data set [6] is described as follows: Binding affinity to planer lipid bilayer assessed as change in height of semicircle pattern by admittance spectroscopic analysis. It counts as physicochemical.
For data set [7], the system named is Radical scavenging activity. Nature of the data set: Antioxidant activity assessed as DPPH free radical scavenging activity at <100 uM after 45 mins by UV-visible spectrophotometric analysis relative to vitamin C. The format is functional.
Data set [8] is described as follows: Binding affinity to planer lipid bilayer assessed as increase in anodic current by cyclic voltammetric analysis. It counts as physicochemical.
Data set [9] can be described thus: Antioxidant activity in planer lipid bilayer membrane assessed as reduction in 50 uM DPPH-induced charge transfer resistance at 50 uM by admittance spectroscopic analysis. It counts as functional, cell membranes. The arrangement: scale not given: the % may be the effect or the level left.
Data set [10] is described as follows: Induction of blebbing morphology in human erythrocytes up to 100 uM after 1 hr by cold field emission scanning electron microscopic analysis. It counts as cell-based. To be noted: erythrocyte.
Data set [11] can be described thus: Binding affinity to planer lipid bilayer assessed as increase in cathodic current by cyclic voltammetric analysis. The format is physicochemical.
The nature of data set [12]: Binding affinity to curcumin encapsulated liposomes assessed as curcumin release from unilamellar vesicles after 20 mins by NMR spectroscopic analysis.
Data set [13] in a line: Induction of budding morphology in human erythrocytes up to 100 uM after 1 hr by cold field emission scanning electron microscopic analysis. Particulars: erythrocyte. It counts as cell-based.
In data set [14] the test system is Radical scavenging activity. Nature of the data set: Antioxidant activity assessed as DPPH free radical scavenging activity at >100 uM after 45 mins by UV-visible spectrophotometric analysis relative to vitamin C. The format is functional.
Data set [15] is described as follows: Binding affinity to planer lipid bilayer assessed as change in diameter of semicircle pattern by admittance spectroscopic analysis. The format is physicochemical.
Data set [16] is described as follows: Binding affinity to planer lipid bilayer assessed as reduction in charge transfer resistance by admittance spectroscopic analysis. It counts as physicochemical.
A short description of data set [17]: Antioxidant activity in planer lipid bilayer membrane assessed as inhibition of DPPH-induced reduction in height of semicircle at 50 to 100 uM by admittance spectroscopic analysis. The format is functional, cell membranes.
A short description of data set [18]: Antioxidant activity in planer lipid bilayer membrane assessed as reduction in 100 uM DPPH-induced charge transfer resistance at 50 uM by admittance spectroscopic analysis. The format is functional, cell membranes. The arrangement: scale not given: the % may be the effect or the level left.
Data set [19] in a line: Antioxidant activity in planer lipid bilayer membrane assessed as inhibition of DPPH-induced reduction in diameter of semicircle at 50 to 100 uM by admittance spectroscopic analysis. The format is functional, cell membranes.
Data set [20] is described as follows: Induction of morphological changes in human erythrocytes at => 60 uM after 1 hr by cold field emission scanning electron microscopic analysis. The format is cell-based. To be noted: erythrocyte.

The structures appear in SMILES notation. Activity calls are given as the source filed them. The rule behind the calls is not given here.

`Oc1ccc(/C=C/c2cc(O)cc(O)c2)cc1` [RESVERATROL]: the Activity in the data set with MCF7 is 50%; in data set [1] it was “Active”; in [2], “Toxic”; in data set [3] it was 7.7%; in [4], 10.9%; in data set [5], 17%. In addition, the Activity result in data set [6] is “Dose-dependent effect”; in [8], “Dose-dependent effect”; in data set [9], 19.5%; in [10], “Toxic”; in data set [11], “Dose-dependent effect”; in data set [12], “Dose-dependent effect”. In addition, the Activity entry in [13] is “Toxic”; in data set [15] it was “Dose-dependent effect”; in data set [16], “Active”; in data set [18], 22%; in [20], “Non-toxic”. Also, the outcome in data set [7] and in data set [14] was Active. In addition, the inhibition result in data set [17] and in [19] was “Active” each time.
